Data as given in paper PMC7247425, “MRP1-Collateral Sensitizers as a Novel Therapeutic Approach in Resistant Cancer Therapy: An In Vitro and In Vivo Study in Lung Resistant Tumor” (International Journal of Molecular Sciences, 2020).

Legend:
A549/DX = assay: Intracellular total ROS production in A549/DX (DCFDA-AM); format: cell-based, human; details: for Intracellular ROS production with cis-Pt: 10 μM + 25 μM cis-Pt; for Intracellular ROS production with cis-Pt / Intracellular ROS production, compound alone: 24 h; for Intracellular ROS production, compound alone / Intracellular ROS production with ROS scavenger Tempol: 10 μM; for Intracellular ROS production with ROS scavenger Tempol: with 10 mM Tempol
Source text: One of the possible reasons of this sensitization is the ability of these three compounds to inhibit the efflux of cis-Pt, which is MRP1-mediated. […] This could be associated with a second reason, considering one of the putative mechanisms of CS consisting of an increased production of ROS, capable of triggering the apoptosis of MDR cells. To investigate whether this mechanism is involved in the sensitizing effects elicited by F397, F400, and F421, we measured the intracellular ROS production in A549/DX after 24 h treatment with these three molecules at 10 μM, with and without 25 μM cis-Pt (Figure 5A). […] Moreover, to verify whether the increase in ROS induced the reduction in cell viability elicited by the compounds, we evaluated the antiproliferative effect at 72 h of these three sensitizers alone and with 25 μM cis-Pt, adding 10 mM Tempol at time zero and after 48 h from the incubation.
Here, 1 × 10^6 whole cells were re-suspended in a final volume of 0.5 mL PBS and incubated for 30 min at 37 °C with 5 μM of the fluorescent probe 5-(and-6)-chloromethyl-2’,7’-dichlorodihydro-fluorescein diacetate-acetoxymethyl ester (DCFDA-AM, Sigma Chemicals Co.) in the dark. Cells were then centrifuged at 13,000× g at 37 °C and re-suspended in 0.5 mL PBS. The fluorescence of each sample, considered as the index of ROS levels, was read at 492 (λ excitation) and 517 nm (λ emission) using a Synergy HT Multi-Mode Microplate Reader (Bio-Tek Instruments). The results were expressed as nmol total ROS/mg cell proteins. A preliminary titration curve was set up by incubating the cells for 1 h with the cells treated with serial dilutions (10–0.01 nM) of the pro-oxidant agent menadione.

[1] = Hemato-chemical parameters and tolerability in treated mice; format: in vivo; set-up: Creatinine: unit not given here; details: for ALT / AP / AST / CPK / Creatinine / LDH: blood after euthanasia day 21, i.p. treatment day 1, 7, 14, means ± SD, n = 8; for Maximum tolerated dose: i.p., in 100 µL water/10% DMSO, mice (not shown)
Description: (§1) Here, 1 × 10^6 A549/DX cells were mixed with 100 μl Matrigel implanted in 6-week-old female nu/nu BALB/C mice (Charles River Laboratories Italia, Calco, Italy), housed (5 per cage) under 12 h light/dark cycle, with food and drinking provided ad libitum. Tumor growth was measured daily by caliper, according to the equation (LxW2)/2, where L = tumor length and W = tumor width. When the tumor reached the volume of 50 mm^3, mice (n = 8/group) were randomized and treated as reported in the following groups, treated on day 1, 7, and 14 after randomization: (1) vehicle group (ctrl), treated intraperitoneally (i.p.) with 100 µL saline solution; (2) cis-Pt group, treated i.p. with 50 mg/kg cis-Pt, dissolved in 100 µL water/10% DMSO solution, according to Kopecka et al., 2015 [53]; (3) F397 group, treated i.p. with 750 nmoles of the compound, dissolved in 100 µL water/10% DMSO solution, corresponding to the maximum tolerated dose (not shown and Table 2); (4) F421 group, treated i.p. with 750 nmoles of the compound, dissolved in 100 µL water/10% DMSO solution i.p, corresponding to the maximum tolerated dose (not shown and Table 2); (5) cis-Pt/F397 group, treated i.p. with 50 mg/kg Cis-Pt and 750 nmoles of F397; (6) cis-Pt/F421 group, treated i.p. with 50 mg/kg cis-Pt and 750 nmoles of F421; (7) MK571 group, treated i.p. with 3 mg/kg MK571 dissolved in 100 µL water/10% DMSO solution, according to Jones et al., 1989 [56]; (8) MK571/F397 group, treated i.p. with 3 mg/kg MK571 and 750 nmoles of F397; (9) MK571/F421 group, treated i.p. with 3 mg/kg MK571 and 750 nmoles of F421. Tumor volumes were monitored daily. Animals were euthanized at day 21 after randomization with zolazepam (0.2 mL/kg) and xylazine (16 mg/kg). Lactate dehydrogenase (LDH), aspartate aminotransferase (AST), alanine aminotransferase (ALT), alkaline phosphatase (AP), creatinine, and creatine phosphokinase (CPK) were measured on blood samples collected immediately after euthanasia, using commercially available kits from Beckman Coulter Inc. (Beckman Coulter, Miami, FL, USA).

MCF7/DX = tested on: MCF7/DX; set-up: method as in PMID 24106081; details: resistant MCF7/DX overexpressing P-gp; read-out: EC50, cytotoxic activity in MCF7/DX; cited from earlier work
P-gp = tested on: P-gp; set-up: method as in PMID 24106081; details: MCF7 cell line; read-out: EC50, P-gp inhibition; cited from earlier work
MCF7 cell line = tested on: MCF7 cell line; set-up: method as in PMID 24106081; details: MCF7 cells; read-out: EC50, cytotoxicity in MCF7; cited from earlier work
A549/DX cells = assay: In vivo tumor growth of A549/DX xenografts; set-up: species or system nu/nu BALB/C mice; details: for Tumor growth, single agent: A549/DX xenografts in nu/nu BALB/C mice, 750 nmoles i.p. on day 1, 7, 14; for Tumor growth, co-administration with MK571 / Tumor growth, co-administration with cis-Pt: A549/DX xenografts; for Tumor growth, co-administration with MK571: 750 nmoles + 3 mg/kg MK571 i.p.; for Tumor growth, co-administration with cis-Pt: 750 nmoles + 50 mg/kg cis-Pt i.p.
Description: In order to translate in vivo the capability of F397, F400, and F421 to act as “sensitizers”, A549/DX cells were implanted in immune-deficient BALB/C mice, and once the tumor reached the volume of 50 mm^3, the mice were randomized and treated […] with the vehicle (saline solution) and/or cis-Pt.
as §1

in vitro = format: cell-based; details: human
Source text: Nevertheless, the involvement of a sigma-2 receptor-mediated effect was ruled out by the detection of a low density of sigma-2 receptors in A549 cells (data not shown). […].

[2] = Solubility in solvents suitable for in vivo studies; format: physicochemical
Source text: Of note, the dose of F397 and F421 effective as an anti-tumor agent in vivo was lower than the dosage effective as an anti-proliferative agent in vitro. One possible reason could be that part of the anti-tumor effect of the compounds was mediated by their activity on the tumor microenvironment, not necessarily only on tumor cells. This aspect cannot be evaluated in the viability assays performed in vitro and could lead to an underestimation of the compounds’ potency. Further, the repeated administration of F397 and F421 followed in vivo instead of the single dosage used in vitro can be an additional explanation. […] This could also be the case of F397 and F421 against A549/DX tumors. […] It is also worth noting that the treatment was not toxic for liver, heart, and kidney compared with the control, as shown from the hemato-chemical parameters of the animals (Table 2).

Row | SMILES | Intracellular ROS production with cis-Pt (A549/DX) | Intracellular ROS production, compound alone (A549/DX) | Intracellular ROS production with ROS scavenger Tempol (A549/DX) | ALT [1] [U/L] | AP [1] [U/L] | AST [1] [U/L] | CPK [1] [U/L] | Creatinine [1] | LDH [1] [U/L] | Maximum tolerated dose [1] [nmol] | EC50 (MCF7/DX) [µM] | EC50 (P-gp) [µM] | EC50 (MCF7 cell line) [µM] | Tumor growth, single agent (A549/DX cells) | Tumor growth, co-administration with MK571 (A549/DX cells) | Tumor growth, co-administration with cis-Pt (A549/DX cells) | EC50 (in vitro) [µM] | Solubility in solvents suitable for in vivo studies [2]
1 | COc1cc2c(cc1OC)CN(CCCCc1cn(-c3ccc(F)cc3)c3ccccc13)CC2 [F397, 6,7-dimethoxy-2-{4-[1-(4-fluorophenyl)-1H-indol-3-yl]butyl}-1,2,3,4-tetrahydroisoquinoline] | further enhanced when they were co-administrated with the antineoplastic drug | increased the amount of intracellular ROS | reverted by the ROS scavenger Tempol | 37 ± 108 | 112 ± 32 | 81 ± 24 | 324 ± 72 | 0.043 ± 0.009 | 6729 ± 492 | 750 | 21.8 | 0.21 | 17.8 | low growth reduction | abated the cytotoxic effect | greatly reduced tumor growth |  | 
2 | COc1cc2c(cc1OC)CN(C(=O)CCC1CCCc3c(OC)cccc31)CC2 (centres unmarked) [F400, 6,7-dimethoxy-2-[3-(5-methoxy-1,2,3,4-tetrahydronaphthalen-1-yl)propionyl]-1,2,3,4 tetrahydroisoquinoline] | further enhanced when they were co-administrated with the antineoplastic drug | increased the amount of intracellular ROS | reverted by the ROS scavenger Tempol |  |  |  |  |  |  |  |  |  |  |  |  |  | > 100 | could not be dissolved in solvents suitable for in vivo studies
3 | COc1ccc(CNCCCCc2cn(-c3ccc(F)cc3)c3ccccc23)cc1OC [F421, N-{4-[1-(4-fluorophenyl)-1H-indol-3-yl]butyl}-3,4-dimethoxybenzylamine] | further enhanced when they were co-administrated with the antineoplastic drug | increased the amount of intracellular ROS | reverted by the ROS scavenger Tempol | 33 ± 13 | 143 ± 34 | 82 ± 37 | 321 ± 72 | 0.045 ± 0.011 | 7182 ± 892 | 750 |  |  |  | low growth reduction | abated the cytotoxic effect | greatly reduced tumor growth | > 100 | 
